Data from patent publication US6777418B2, “Retinoid compounds (I)” (Syntex (U.S.A.) LLC, priority 2000, dated 2004).

Tests used:
RAR α = target: T1, RAR α (Homo sapiens, UniProt P10276); assay: Ligand binding assay, retinoid receptors (Apfel et al.), RAR alpha; conditions: first value of the cell, read-out: IC50 nM (alpha/beta/gamma): alpha
T1 sequence (P10276 1-462): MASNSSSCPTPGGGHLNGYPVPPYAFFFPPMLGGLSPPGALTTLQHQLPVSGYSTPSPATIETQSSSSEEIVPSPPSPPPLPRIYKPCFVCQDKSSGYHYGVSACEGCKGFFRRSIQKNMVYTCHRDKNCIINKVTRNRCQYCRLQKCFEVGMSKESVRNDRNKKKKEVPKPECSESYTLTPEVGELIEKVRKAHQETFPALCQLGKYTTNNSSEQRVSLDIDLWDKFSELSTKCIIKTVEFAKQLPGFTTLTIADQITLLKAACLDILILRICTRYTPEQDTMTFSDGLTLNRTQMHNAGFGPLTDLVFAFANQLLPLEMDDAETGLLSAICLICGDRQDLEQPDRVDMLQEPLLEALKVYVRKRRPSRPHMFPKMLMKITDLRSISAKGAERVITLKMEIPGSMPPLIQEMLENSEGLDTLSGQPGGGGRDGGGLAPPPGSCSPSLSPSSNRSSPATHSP
Source text: (§1) The retinoic acid receptor agonist selectivity of a compound of the invention may be determined by using ligand binding assays known to the skilled artisan (Apfel et al., Proc. Natl. Acad. Sci., (1992), 89, 7129; Teng et al., J. Med. Chem., (1997), 40, 2445; Bryce et al., U.S. Pat. No. 5,807,900 which are herein incorporated by reference). Treatment with RAR agonists, particularly RAR γ agonists may promote repair of alveolar matrix and septation, which are in important in treating emphysema. Preferably, compounds of the invention are γ selective agonists that bind to the γ receptor with affinities between about 25 nm and about 1000 nm and show a five to ten fold selectivity over binding to the RAR α receptor. It should be noted that RAR agonists that are not γ selective may be effective in treating emphysema. Transactivation, which is the ability of a retinoid to activate gene transcription when gene transcription is initiated by the binding of a ligand to the particular retinoic acid receptor being tested, may be determined by using methods described in the art (Apfel et al., Proc. Natl. Acad. Sci., (1992), 89, 7129; Bernard et al., Biochem. And Biophys. Res. Comm., (1992), 186, 977 which is herein incorporated by reference.
(§2) The RAR α antagonist selectivity of compounds of the invention was determined by the ligand binding assays described in C. Apfel et al. Proc. Nat. Sci. Acad. (USA), 89:7129-7133 (1992).

RAR gamma = target: T2, RAR gamma (Homo sapiens, UniProt P13631); assay: Ligand binding assay, retinoid receptors (Apfel et al.), RAR gamma; conditions: third value of the cell, read-out: IC50 nM (alpha/beta/gamma): gamma
T2 sequence (P13631 1-454): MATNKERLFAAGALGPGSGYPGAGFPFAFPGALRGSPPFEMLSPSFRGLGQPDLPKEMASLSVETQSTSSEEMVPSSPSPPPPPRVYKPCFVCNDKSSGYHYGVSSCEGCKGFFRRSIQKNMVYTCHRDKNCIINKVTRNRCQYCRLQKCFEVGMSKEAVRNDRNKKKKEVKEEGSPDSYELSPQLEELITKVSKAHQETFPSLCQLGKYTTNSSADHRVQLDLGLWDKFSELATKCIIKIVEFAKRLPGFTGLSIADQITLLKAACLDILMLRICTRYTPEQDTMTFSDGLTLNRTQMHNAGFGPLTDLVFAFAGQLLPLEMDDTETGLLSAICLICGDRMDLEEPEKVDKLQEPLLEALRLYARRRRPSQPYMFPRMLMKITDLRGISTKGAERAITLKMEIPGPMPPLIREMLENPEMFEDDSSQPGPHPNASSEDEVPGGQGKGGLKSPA
Source text: as §1, §2

RAR beta = target: T3, RAR beta (Homo sapiens, UniProt P10826); assay: Ligand binding assay, retinoid receptors (Apfel et al.), RAR beta; conditions: second value of the cell, read-out: IC50 nM (alpha/beta/gamma): beta
T3 sequence (P10826 1-455): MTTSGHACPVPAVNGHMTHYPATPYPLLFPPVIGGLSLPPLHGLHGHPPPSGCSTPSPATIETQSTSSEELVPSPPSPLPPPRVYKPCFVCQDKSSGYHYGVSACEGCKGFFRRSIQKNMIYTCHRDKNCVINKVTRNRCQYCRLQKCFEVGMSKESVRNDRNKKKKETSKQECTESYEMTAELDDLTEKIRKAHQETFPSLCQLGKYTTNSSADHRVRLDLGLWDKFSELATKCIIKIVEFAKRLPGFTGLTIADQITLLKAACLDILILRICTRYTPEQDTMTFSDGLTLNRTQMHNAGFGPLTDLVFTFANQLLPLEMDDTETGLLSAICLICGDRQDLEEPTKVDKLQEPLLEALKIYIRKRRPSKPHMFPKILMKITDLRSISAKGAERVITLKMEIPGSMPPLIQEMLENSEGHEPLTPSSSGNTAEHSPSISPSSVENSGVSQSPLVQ
Source text: as §1, §2

COCc1cc2c(cc1/C=C/c1ccc(C(=O)O)cc1)C(C)(C)CCC2(C)C [Compound 1]
IC50 (RAR α): 3600 nM
IC50 (RAR gamma): 1700 nM
IC50 (RAR beta): 1600 nM
melting point: 184.2 to 187.9 °C

CCCCSCc1cc2c(cc1/C=C/c1ccc(C(=O)O)cc1)C(C)(C)CCC2(C)C [Compound 2, 4-[(E)-2-(3-Butylthiomethyl-5,5,8,8-tetramethyl-5,6,7,8-tetrahydro-naphthalen-2-yl)vinyl]benzoic acid]
IC50 (RAR α): 1000 nM
IC50 (RAR gamma): 190 nM
IC50 (RAR beta): 320 nM

CCC(C)CSCc1cc2c(cc1/C=C/c1ccc(C(=O)O)cc1)C(C)(C)CCC2(C)C (centres unmarked) [Compound 3]
IC50 (RAR α): 200 nM
IC50 (RAR gamma): 260 nM
IC50 (RAR beta): 100 nM
melting point: 66.1 to 68.5 °C

CC1(C)CCC(C)(C)c2cc(Cn3cccc3)c(/C=C/c3ccc(C(=O)O)cc3)cc21 [Compound 7, 4-[(E)-2-(5,5,8,8-tetramethyl-3-pyrrol-1-ylmethyl-5,6,7,8-tetrahydro-naphthalen-2-yl)vinyl]benzoic acid]
IC50 (RAR α): 260 nM
IC50 (RAR gamma): 17 nM
IC50 (RAR beta): 140 nM
melting point: 255.6 to 257.4 °C

CC1(C)CCC(C)(C)c2cc(CSCc3ccco3)c(/C=C/c3ccc(C(=O)O)cc3)cc21 [Compound 8]
IC50 (RAR α): 810 nM
IC50 (RAR gamma): 26 nM
IC50 (RAR beta): 450 nM
melting point: 169.7 to 171 °C

COCCCc1cc2c(cc1/C=C/c1ccc(C(=O)O)cc1)C(C)(C)CCC2(C)C [Compound 11, 4-{(E)-2-[3-(3-methoxypropyl}-5,8,8-tetramethyl-5,6,7,8-tetrahydro-naphthalen-2-yl]vinyl}benzoic acid]
IC50 (RAR α): 1800 nM
IC50 (RAR gamma): 210 nM
IC50 (RAR beta): 1400 nM
melting point: 164.7 to 166 °C

CC1(C)CCC(C)(C)c2cc(CO)c(/C=C/c3ccc(C(=O)O)cc3)cc21 [Compound 15]
IC50 (RAR α): 1000 nM
IC50 (RAR gamma): 1800 nM
IC50 (RAR beta): 1000 nM

Cc1cnn(Cc2cc3c(cc2/C=C/c2ccc(C(=O)O)cc2)C(C)(C)CCC3(C)C)c1 [Compound 20]
IC50 (RAR α): 950 nM
IC50 (RAR gamma): 670 nM
IC50 (RAR beta): 620 nM

Cn1nnnc1SCc1cc2c(cc1/C=C/c1ccc(C(=O)O)cc1)C(C)(C)CCC2(C)C [Compound 25]
IC50 (RAR α): 190 nM
IC50 (RAR gamma): 230 nM
IC50 (RAR beta): 100 nM

Cc1ccc(Cc2cc3c(cc2/C=C/c2ccc(C(=O)O)cc2)C(C)(C)CCC3(C)C)cc1 [Compound 42, 4-{(E)-2-[5,5,8,8-tetramethyl-3-(4-methylbenzyl)-5,6,7,8-tetrahydro-naphthalen-2-yl]vinyl}benzoic acid]
melting point: 216.3 to 217.3 °C

CC1(C)CCC(C)(C)c2cc(Cc3ccc(F)cc3F)c(/C=C/c3ccc(C(=O)O)cc3)cc21 [Compound 43, 4-{(E)-2-[5,5,8,8-tetramethyl-3-(2,4-difluorobenzyl)-5,6,7,8-tetrahydro-naphthalen-2-yl]vinyl}benzoic acid]
melting point: 204.3 to 205.7 °C

CC1(C)CCC(C)(C)c2cc(Cc3cccs3)c(/C=C/c3ccc(C(=O)O)cc3)cc21 [Compound 44, 4-[(E)-2-(5,5,8,8-tetramethyl-3-thiophen-2ylmethyl-5,6,7,8-tetrahydro-naphthalen-2-yl)vinyl]benzoic acid]
melting point: 229.1 to 229.6 °C

CC1(C)CCC(C)(C)c2cc(Cn3cccn3)c(/C=C/c3ccc(C(=O)O)s3)cc21 [Compound 45, 5-[(E)-2-(5,5,8,8-tetramethyl-3-pyrazol-1-ylmethyl-5,6,7,8-tetrahydro-naphthalen-2-yl)vinyl]-thiophene-2-carboxylic acid]
melting point: 168 to 174 °C

CC1(C)CCC(C)(C)c2cc(Cn3cccn3)c(/C=C/c3ccc(C(=O)O)c(F)c3)cc21 [Compound 47, 2-Fluoro-4-[(E)-2-[5,5,8,8-tetramethyl-3-pyrazol-1-ylmethyl-5,6,7,8-tetrahydronaphthalen-2-yl)vinyl]benzoic acid]
melting point: 177 to 179 °C

CC1(C)CC(O)C(C)(C)c2cc(Cn3cccn3)c(/C=C/c3ccc(C(=O)O)cc3)cc21 (centres unmarked) [Compound 55, 4-[(E)-2-(5,5,8,8-tetramethyl-3pyrazol-1-ylmethyl-6-hydroxy-5,6,7,8-tetrahydro-naphthalen-2-yl)vinyl]benzoic acid]
melting point: 241.6 to 242 °C

CC1(C)CC(=O)C(C)(C)c2cc(Cn3cccn3)c(/C=C/c3ccc(C(=O)O)cc3)cc21 [Compound 133, 4-[(E)-2-(5,5,8,8-tetramethyl-3-pyrazol-1-ylmethyl-6-oxo-5,6,7,8-tetrahydro-naphthalen-2-yl)vinyl]-benzoic acid]
melting point: 233 to 233.5 °C

CC1(C)CC(O)C(C)(C)c2cc(/C=C/c3ccc(C(=O)O)cc3)c(Cn3cccn3)cc21 (centres unmarked) [Compound 137, (E)-4-[2-(3-(pyrazole-1-ylmethyl)-7-hydroxy-5,5,8,8-tetramethyl-5,6,7,8-tetrahydronaphthalene-2-yl)vinyl]benzoic acid]
melting point: 247.6 to 248.4 °C

CC1(C)CC(=O)C(C)(C)c2cc(/C=C/c3ccc(C(=O)O)cc3)c(Cn3cccn3)cc21 [Compound 144, (E)-4-[2-(3-(pyrazole-1-ylmethyl)-7-oxo-5,5,8,8-tetramethyl-5,6,7,8-tetrahydronaphthalene-2-yl)vinyl]benzoic acid]
melting point: 264.8 to 265.9 °C

CC1(C)CCC(C)(C)c2cc(Sc3ncccn3)c(/C=C/c3ccc(C(=O)O)cc3)cc21 [Compound 155, 4-{(E)-2-[5,5,8,8-Tetramethyl-3-(mercaptopyrmidin-2-yl)-5,6,7,8-tetrahydro-naphthalen-2-yl)vinyl]benzoic acid]
melting point: 283 to 283.5 °C

CC1(C)CCC(C)(C)c2cc(Cn3cccn3)c(/C=C/c3ccc(C(N)=O)cc3)cc21 [Compound 165, 4-[(E)-2-(5,5,8,8-tetramethyl-3-pyrzol-1-ylmethyl-5,6,7,8-tetrahydro-naphthalen-2-yl)vinyl]benzamide]
melting point: 248 to 249 °C

CC1(C)CCC(C)(C)c2cc(Cn3cccn3)c(/C=C/c3ccc(C(=O)N4CCCCC4)cc3)cc21 [Compound 166, 4-[(E)-2-(5,5,8,8-tetramethyl-3-pyrzol-1-ylmethyl-5,6,7,8-tetrahydro-naphthalen-2-yl)vinyl]benzoic acid piperidine amide]
melting point: 171.6 to 172.5 °C
